{
  "source": "patent US8962843B2",
  "about": "“1,3,4-oxadiazole and 1,3,4-thiadiazole beta-lactamase inhibitors” (priority 2012, dated 2015)",
  "key": {"[1]": {"system": "bacterial strains that express KPC β-lactamases", "assay": "Standard BLI potentiation MIC / synergy MIC assays, strains expressing KPC β-lactamases", "format": "cell-based", "settings": "in combination with a β-lactam; comparator Avibactam", "description": "(§1) The experimental protocol was performed according to Clinical and Laboratory Standards Institute (CLSI) guidelines with modifications as described below (CLSI guidelines can be derived from the CLSI document M07-A9 published in January 2012: “Methods for Dilution Antimicrobial Susceptibility Tests for Bacteria That Grow Aerobically; Approved Standard-Ninth Edition”).\n(§2) To prepare for MIC testing, frozen glycerol stocks of clinical isolates (Klebsiella pneumoniae, Eschericia coli, Enterobacter spp, Citrobacter spp, or Pseudomonas aeruginosa) were used to streak for isolated colonies on rich, non-selective, tryptic soy agar containing 5% sheep's blood (TSAB). Frozen glycerol stocks of laboratory engineered, isogenic E. coli strains, which contain cloned β-lactamase expressing plasmids were used to streak for isolated colonies on rich, selective LB agar supplemented with 25 μg/mL tetracycline to maintain the plasmid. All strains were incubated at 37° C. for 18-24 hrs.\n(§3) On the day of testing, primary cultures were started by scraping off 5-10 colonies from the TSAB plates containing clinical strains or the tetracycline supplemented LB plates containing engineered strains. The clinical strain material was suspended in ˜5 mL of cation adjusted Mueller Hinton Broth (CAMHB) in 14 mL culture tubes. The engineered strain material was suspended in CAMHB (supplemented with 25 μg/mL tetracycline) in 14 mL culture tubes. All strains were incubated at 37° C. with aeration (200 rpm) for ˜2 hrs until the optical density at 600 nm (OD600) was >0.1.\n(§4) The two compound components of the assay were each diluted in CAMHB and added to the 96-well broth microdilution assay plates. 50 μL of the β-lactam was added to each well of the assay plate in 2-fold dilutions with final concentrations ranging from 128 to 0.13 μg/mL. 25 μL of the BLI compound was added to all wells in the broth microdilution plates at a final concentration of 4 μg/mL. Inoculum cultures were prepared by standardizing the primary cultures to OD600=0.1 and then adding 20 μL of the adjusted primary culture per 1 mL CAMHB for clinical strains or CAMHB (supplemented with tetracycline at 100 μg/mL) for engineered strains, so that the final inoculum density was ˜10^5 colony forming units per milliliter. Diluted inoculum cultures were used to inoculate 25 μl, per well in 96-well broth microdilution assay plates. The final volume of each well was 100 μL and contained a β-lactam at different concentrations, a BLlcompound at 4 μg/mL concentration, the bacterial culture at an OD600 of approximately 0.001 and when necessary tetracycline at 25 μg/mL.\n(§5) Plates were incubated for 18-20 hours at 37° C. with aeration (200 rpm). Following incubation, growth was confirmed visually placing plates over a viewing apparatus (stand with a mirror underneath) and then OD600 was measured using a SpectraMax 340PC384 plate reader (Molecular Devices, Sunnyvale, Calif.). Growth was defined as turbidity that could be detected with the naked eye or achieving minimum OD600 of 0.1. MIC values were defined as the lowest concentration producing no visible turbidity.\n(§6) The synergy MIC (sMIC) assay determines the concentration of the BLI required to potentiate the activity of a fixed concentration of a β-lactam antibiotic against β-lactamase producing bacterial strains. The experimental protocol was performed according to Clinical and Laboratory Standards Institute (CLSI) guidelines with modifications as described below (CLSI guidelines can be derived from the CLSI document M07-A9 published in January 2012: “Methods for Dilution Antimicrobial Susceptibility Tests for Bacteria That Grow Aerobically; Approved Standard-Ninth Edition”). […]"}, "[2]": {"system": "bacterial strains that express the class D cephalosporinase OXA-15", "assay": "Standard BLI potentiation MIC / synergy MIC assays, strains expressing OXA-15", "format": "cell-based, E. coli", "settings": "in combination with a β-lactam; comparator Avibactam (CCC)", "description": "as §1, §2, §3, §4, §5, §6"}},
  "note": "Counter-ions that a name gives are not always drawn.",
  "data": [
    {"smiles": "O=C1N2C[C@@H](CC[C@H]2c2nnco2)N1OS(=O)(=O)O", "note": "[Compound 701, (2S,5R)-2-(1,3,4-oxadiazol-2-yl)-7-oxo-1,6-diazabicyclo[3.2.1]octan-6-yl hydrogen sulfate]", "values": [
      {"measurement": "activity and/or spectrum of activity against bacterial strains that express KPC β-lactamases, compared with Avibactam", "setting": "[1]", "value": "more active than Avibactam for at least one, bacterial strain that expresses KPC β-lactamase and/or show a better spectrum of activity"},
      {"measurement": "activity against bacterial strains that express the class D cephalosporinase OXA-15, compared with Avibactam", "setting": "[2]", "value": "more active than Avibactam"}
    ]},
    {"smiles": "NCc1nnc([C@@H]2CC[C@@H]3CN2C(=O)N3OS(=O)(=O)O)o1", "note": "[Compound 702, (2S,5R)-2-(5-(aminomethyl)-1,3,4-oxadiazol-2-yl)-7-oxo-1,6-diazabicyclo[3.2.1]octan-6-yl hydrogen sulfate]", "values": [
      {"measurement": "activity and/or spectrum of activity against bacterial strains that express KPC β-lactamases, compared with Avibactam", "setting": "[1]", "value": "more active than Avibactam for at least one, bacterial strain that expresses KPC β-lactamase and/or show a better spectrum of activity"},
      {"measurement": "activity against bacterial strains that express the class D cephalosporinase OXA-15, compared with Avibactam", "setting": "[2]", "value": "more active than Avibactam"}
    ]},
    {"smiles": "NCCc1nnc([C@@H]2CC[C@@H]3CN2C(=O)N3OS(=O)(=O)O)o1", "note": "[Compound 703, (2S,5R)-2-(5-(2-aminoethyl)-1,3,4-oxadiazol-2-yl)-7-oxo-1,6-diazabicyclo[3.2.1]octan-6-yl hydrogen sulfate]", "values": [
      {"measurement": "activity and/or spectrum of activity against bacterial strains that express KPC β-lactamases, compared with Avibactam", "setting": "[1]", "value": "more active than Avibactam for at least one, bacterial strain that expresses KPC β-lactamase and/or show a better spectrum of activity"},
      {"measurement": "activity against bacterial strains that express the class D cephalosporinase OXA-15, compared with Avibactam", "setting": "[2]", "value": "more active than Avibactam"}
    ]},
    {"smiles": "N=C(N)NCCc1nnc([C@@H]2CC[C@@H]3CN2C(=O)N3OS(=O)(=O)O)o1", "note": "[Compound 705, (2S,5R)-2-(5-(2-guanidinoethyl)-1,3,4-oxadiazol-2-yl)-7-oxo-1,6-diazabicyclo[3.2.1]octan-6-yl hydrogen sulfate]", "values": [
      {"measurement": "activity and/or spectrum of activity against bacterial strains that express KPC β-lactamases, compared with Avibactam", "setting": "[1]", "value": "more active than Avibactam for at least one, bacterial strain that expresses KPC β-lactamase and/or show a better spectrum of activity"},
      {"measurement": "activity against bacterial strains that express the class D cephalosporinase OXA-15, compared with Avibactam", "setting": "[2]", "value": "more active than Avibactam"}
    ]},
    {"smiles": "NC(=O)c1nnc([C@@H]2CC[C@@H]3CN2C(=O)N3OS(=O)(=O)O)o1", "note": "[Compound 706, (2S,5R)-2-(5-carbamoyl-1,3,4-oxadiazol-2-yl)-7-oxo-1,6-diaza-bicyclo[3.2.1]octan-6-yl hydrogen sulfate]", "values": [
      {"measurement": "activity and/or spectrum of activity against bacterial strains that express KPC β-lactamases, compared with Avibactam", "setting": "[1]", "value": "more active than Avibactam for at least one, bacterial strain that expresses KPC β-lactamase and/or show a better spectrum of activity"},
      {"measurement": "activity against bacterial strains that express the class D cephalosporinase OXA-15, compared with Avibactam", "setting": "[2]", "value": "more active than Avibactam"}
    ]},
    {"smiles": "O=C1N2C[C@@H](CC[C@H]2c2nnc(C3CNC3)o2)N1OS(=O)(=O)O", "note": "[Compound 708, (2S,5R)-2-(5-(azetidin-3-yl)-1,3,4-oxadiazol-2-yl)-7-oxo-1,6-diazabicyclo[3.2.1]octan-6-yl hydrogen sulfate]", "values": [
      {"measurement": "activity and/or spectrum of activity against bacterial strains that express KPC β-lactamases, compared with Avibactam", "setting": "[1]", "value": "more active than Avibactam for at least one, bacterial strain that expresses KPC β-lactamase and/or show a better spectrum of activity"},
      {"measurement": "activity against bacterial strains that express the class D cephalosporinase OXA-15, compared with Avibactam", "setting": "[2]", "value": "more active than Avibactam"}
    ]},
    {"smiles": "NC1CCN(CCc2nnc([C@@H]3CC[C@@H]4CN3C(=O)N4OS(=O)(=O)O)o2)CC1", "note": "[Compound 775, (2S,5R)-2-(5-(2-(4-aminopiperidin-1-ybethyl)-1,3,4-oxadiazol-2-yl)-7-oxo-1,6-diazabicyclo[3.2.1]octan-6-yl hydrogen sulfate]", "values": [
      {"measurement": "activity and/or spectrum of activity against bacterial strains that express KPC β-lactamases, compared with Avibactam", "setting": "[1]", "value": "more active than Avibactam for at least one, bacterial strain that expresses KPC β-lactamase and/or show a better spectrum of activity"}
    ]}
  ]
}
